Measured values taken from PMC12157126, “Saturation kinetics and specificity of transporters for L-arginine and asymmetric dimethylarginine (ADMA) at the blood-brain and blood-CSF barriers” (PLOS One, 2025).
Values joined by “and” are separate entries in the source; they are usually repeats but may differ in a detail not shown here. Equal values may be shown once. Read-outs that look alike come from different tables or passages of the source.

How the values were obtained:
[1] = test system: blood-brain and blood-CSF barriers; assay: In situ brain/choroid plexus perfusion with capillary depletion: CNS uptake of [3H]-ADMA in absence and presence of transporter inhibitors; settings: for % inhibition of [3H]-ADMA uptake: L-homoarginine 20 mM, BCH 4 mM, L-phenylalanine 200 μM, L-leucine 5 mM, harmaline 2 mM; for RBrain, [3H]-ADMA alone: 10 min perfusion, mean±SEM; for RBrain, [3H]-ADMA alone / uptake of [3H]-ADMA: [14C]-sucrose corrected; for uptake of [3H]-ADMA: S14 Fig
Experimental: (§1) The in situ brain/choroid plexus perfusion method was performed as previously described and will only be briefly detailed here. […] At the end of the perfusion period a CSF sample was taken from the cisterna magna, the animal was decapitated, the brain removed and samples taken under a Leica S4E L2 stereomicroscope (Leica; Buckinghamshire, UK). […] The circumventricular organs (CVOs) including the choroid plexus, pituitary gland and pineal gland were also sampled. Brain samples were also taken for capillary depletion analysis.
(§2) Both the physiological capillary depletion buffer and dextran solution were maintained at 4 °C to halt any cell metabolism and transport processes, and to reduce any cellular or protein damage due to heat generated from the homogenisation process. The whole brain homogenate was then taken for dextran density centrifugation (5,400 x g) and 4 °C to produce an endothelial cell-enriched pellet and supernatant containing brain parenchyma.
(§3) The transporter proteins these inhibitors target are listed in S1 Table in S1 File.
(§4) % change=RTissue−RInhibition /RTissue× 100 (2)

[2] = test system: blood-brain and blood-CSF barriers; assay: In situ brain/choroid plexus perfusion with capillary depletion: CNS uptake of [3H]-arginine in absence and presence of transporter inhibitors; type: in vivo, adult male BALB/c mice; settings: 4 mM BCH or 500 μM α-methyl-D,L-tryptophan
Experimental: as §1, §2, §3, §4

[3] = test system: blood-brain and blood-CSF barriers; assay: Self-inhibition experiments: [3H]-ADMA uptake with 0.5-500 μM unlabelled ADMA and kinetic constants (Km, Vmax, Kd); type: in vivo, adult male BALB/c mice; settings: for Km: read-out: Km (half-saturation constant) of [3H]-ADMA influx
Excerpt: At the end of the perfusion period a CSF sample was taken from the cisterna magna, the animal was decapitated, the brain removed and samples taken under a Leica S4E L2 stereomicroscope (Leica; Buckinghamshire, UK). The samples included the frontal cortex, caudate nucleus, occipital cortex, hippocampus, hypothalamus, thalamus, pons and cerebellum. The circumventricular organs (CVOs) including the choroid plexus, pituitary gland and pineal gland were also sampled. Brain samples were also taken for capillary depletion analysis.
A series of single-time point experiments involved varying the unlabelled concentration of ADMA in the artificial plasma and measuring the [^3H]-ADMA uptake into the brain regions, capillary depletion samples, CVOs and CSF after 10 min of perfusion. […] This enabled calculation of the kinetic constants; Vmax (the maximal influx rate of the saturable component), Km (the half-saturation constant) and Kd (the constant of non-saturable diffusion).
In the case where the uptake of the radiolabelled test amino acid is examined in the presence of various unlabelled concentrations of the same test solute, Kin, can be defined as in equation 4:
Kin= Vmax/Km+ Cpl+ Kd (5)
Unidirectional ADMA flux (Jin) into the brain (nmol.min^-1.g^-1) and CSF (nmol.min^-1.ml^-1) was determined using equations 6 and 7:
Jin=VmaxCpl/Km+ Cpl+ KdCpl (8)
This constant of non-saturable diffusion was then used to calculate a non-saturable flux which could be subtracted from the total flux to determine the saturable flux. […] In some cases, there was no measurable non-saturable component and so estimates of Vmax and Km were obtained from plots of total flux, which was equal to the saturable flux.

[4] = brain homogenate or supernatant

NC1(C(=O)O)CC2CCC1C2 (stereo not drawn) [BCH, 2-amino-endo-bicyclo[2.2.1]heptane-2-carboxylic acid, reference compound]
inhibition of [3H]-ADMA uptake ([1]; brain and choroid plexus (up to), system B0,+ inhibitors): up to 50.0%
effect on [3H]-ADMA uptake [1, 4]: did not significantly affect
% inhibition of [3H]-ADMA uptake ([1]; caudate nucleus, α-methyl-D,L-tryptophan 500 μM): 37.5%
% inhibition of [3H]-ADMA uptake ([1]; choroid plexus): 50.0%
% inhibition of [3H]-ADMA uptake ([1]; hippocampus, α-methyl-D,L-tryptophan 500 μM): 36.6%
% inhibition of [3H]-ADMA uptake ([1]; hypothalamus, α-methyl-D,L-tryptophan 500 μM): 36.8%
% inhibition of [3H]-ADMA uptake ([1]; occipital cortex, α-methyl-D,L-tryptophan 500 μM): 34.2%
% inhibition of [3H]-ADMA uptake ([1]; pineal gland, α-methyl-D,L-tryptophan 500 μM): 65.6%
% inhibition of [3H]-ADMA uptake ([1]; pituitary gland): 61.5%
effect on [3H]-arginine distribution ([2]; CSF, choroid plexus and pituitary gland): no statistically significant effect
effect on [3H]-arginine distribution ([2]; homogenate, supernatant, pellet): no significant effect
effect on [3H]-arginine uptake ([2]; majority of brain regions sampled): did not significantly affect

CN(C)C(N)=NCCC[C@H](N)C(=O)O [[^3H]-ADMA, asymmetric dimethylarginine]
non-saturable component of [3H]-ADMA flux ([3]; CSF): no non-saturable component
Vmax (maximal influx rate of the saturable component) of [3H]-ADMA ([3]; CSF, from total flux): 2.07 ± 0.38 nmol/min/g and 2.067 ± 0.38 nmol/min/g
Km ([3]; CSF, from total flux): 30.6 ± 25.4 µM
Kd (constant of non-saturable diffusion) of [3H]-ADMA ([3]; caudate nucleus): 2.82 µL/min/g
Vmax (maximal influx rate of the saturable component) of [3H]-ADMA ([3]; caudate nucleus): 0.423 ± 0.061 nmol/min/g
Km ([3]; caudate nucleus, saturable flux, sucrose space increased at 500 µM ADMA): 25.2 ± 16.6 µM
Kd (constant of non-saturable diffusion) of [3H]-ADMA ([3]; cerebellum): 5.20 µL/min/g
Vmax (maximal influx rate of the saturable component) of [3H]-ADMA ([3]; cerebellum): 0.235 ± 0.011 nmol/min/g
Km ([3]; cerebellum, saturable flux, sucrose space increased at 500 µM ADMA): 24.7 ± 5.32 µM
RTissue ([3]; choroid plexuses, pituitary gland and pineal gland, 10 minutes): > 100%
Vmax (maximal influx rate of the saturable component) of [3H]-ADMA ([3]; frontal cortex): 0.307 ± 0.017 nmol/min/g
Km ([3]; frontal cortex, saturable flux): 29.1 ± 7.19 µM
Kd (constant of non-saturable diffusion) of [3H]-ADMA ([3]; frontal cortex, slope of total flux at 100 and 500 μM): 4.40 µL/min/g
Kd (constant of non-saturable diffusion) of [3H]-ADMA ([3]; hippocampus): 3.23 µL/min/g
Vmax (maximal influx rate of the saturable component) of [3H]-ADMA ([3]; hippocampus): 0.24 ± 0.02 nmol/min/g
Km ([3]; hippocampus, saturable flux, sucrose space increased at 500 µM ADMA): 15.8 ± 6.86 µM
Kd (constant of non-saturable diffusion) of [3H]-ADMA ([3]; homogenate): 3.34 µL/min/g
Vmax (maximal influx rate of the saturable component) of [3H]-ADMA ([3]; homogenate): 0.155 ± 0.013 nmol/min/g
Km ([3]; homogenate, saturable flux): 13.6 ± 5.26 µM
Kd (constant of non-saturable diffusion) of [3H]-ADMA ([3]; hypothalamus): 5.18 µL/min/g
Vmax (maximal influx rate of the saturable component) of [3H]-ADMA ([3]; hypothalamus): 0.482 ± 0.049 nmol/min/g
Km ([3]; hypothalamus, saturable flux): 23.2 ± 10.8 µM
Kd (constant of non-saturable diffusion) of [3H]-ADMA ([3]; occipital cortex): 4.65 µL/min/g
Vmax (maximal influx rate of the saturable component) of [3H]-ADMA ([3]; occipital cortex): 0.321 ± 0.034 nmol/min/g
Km ([3]; occipital cortex, saturable flux, sucrose space increased at 500 µM ADMA): 25.9 ± 12.6 µM
Kd (constant of non-saturable diffusion) of [3H]-ADMA ([3]; pellet): 0.38 µL/min/g
Vmax (maximal influx rate of the saturable component) of [3H]-ADMA ([3]; pellet): 0.071 ± 0.008 nmol/min/g
Km ([3]; pellet, saturable flux): 34 ± 16.8 µM
Kd (constant of non-saturable diffusion) of [3H]-ADMA ([3]; pons): 3.62 µL/min/g
Vmax (maximal influx rate of the saturable component) of [3H]-ADMA ([3]; pons): 0.325 ± 0.043 nmol/min/g
Km ([3]; pons, saturable flux, sucrose space increased at 500 µM ADMA): 18.2 ± 10.8 µM
Kd (constant of non-saturable diffusion) of [3H]-ADMA ([3]; supernatant): 2.35 µL/min/g
Vmax (maximal influx rate of the saturable component) of [3H]-ADMA ([3]; supernatant): 0.208 ± 0.036 nmol/min/g
Km ([3]; supernatant, saturable flux): 68.5 ± 44.4 µM
Kd (constant of non-saturable diffusion) of [3H]-ADMA ([3]; thalamus): 4.33 µL/min/g
Vmax (maximal influx rate of the saturable component) of [3H]-ADMA ([3]; thalamus): 0.278 ± 0.033 nmol/min/g
Km ([3]; thalamus, saturable flux, sucrose space increased at 500 µM ADMA): 18.5 ± 9.89 µM
uptake into pellet, times lower than into choroid plexus ([1]; 10 minutes): 124.2 times
RBrain, [3H]-ADMA alone ([1]; CSF): 26.72±8.84 ml.100g^-1
RBrain, [3H]-ADMA alone ([1]; caudate nucleus): 24.07±2.92 ml.100g^-1
RBrain, [3H]-ADMA alone ([1]; cerebellum): 17.65±1.52 (n=4) ml.100g^-1
RBrain, [3H]-ADMA alone ([1]; choroid plexus): 260.9±42.45 ml.100g^-1
uptake of [3H]-ADMA ([1]; choroid plexus, 10 minutes): 260.85 ± 42.45 ml.100g^-1
RBrain, [3H]-ADMA alone ([1]; frontal cortex): 24.94±3.50 ml.100g^-1
uptake of [3H]-ADMA ([1]; frontal cortex, 10 minutes): 24.94 ± 3.50 ml.100g^-1
RBrain, [3H]-ADMA alone ([1]; hippocampus): 21.74±1.75 ml.100g^-1
RBrain, [3H]-ADMA alone ([1]; homogenate (capillary depletion)): 17.70±3.10 (n=4) ml.100g^-1
RBrain, [3H]-ADMA alone ([1]; hypothalamus): 30.42 ± 2.98 ml.100g^-1
RBrain, [3H]-ADMA alone ([1]; occipital cortex): 22.52±1.65 ml.100g^-1
RBrain, [3H]-ADMA alone ([1]; pellet (capillary depletion)): 2.62±0.88 (n=4) ml.100g^-1
RBrain, [3H]-ADMA alone ([1]; pineal gland): 194.1±48.46 ml.100g^-1
RBrain, [3H]-ADMA alone ([1]; pituitary gland): 182.9±32.28 ml.100g^-1
RBrain, [3H]-ADMA alone ([1]; pons): 24.64±3.44 ml.100g^-1
RBrain, [3H]-ADMA alone ([1]; supernatant (capillary depletion)): 10.03 ± 1.06 (n=4) ml.100g^-1
RBrain, [3H]-ADMA alone ([1]; thalamus): 21.09±1.74 ml.100g^-1

N[C@@H](Cc1ccccc1)C(=O)O [L-phenylalanine, reference compound]
inhibition of [3H]-ADMA uptake ([1]; phenylalanine, some regions of the brain and the choroid plexus (up to)): up to 66.4%

COc1ccc2c3c([nH]c2c1)C(C)=NCC3 [Harmaline, harmaline, reference compound]
effect on [3H]-ADMA uptake ([1]; brain and choroid plexus): significantly inhibited
effect on [3H]-ADMA uptake [1, 4]: did not significantly affect
